# Values quoted from earlier work, collected in patent US7390922B2, “Phenolic acid salts of gabapentin in liquid and/or semi-solid dosage forms and methods of use” (Kiel Laboratories, Inc., priority 2003, dated 2008).
# Experiments:
# [1] = molecular target: gb1a-gb^2 heterodimer and post-synaptic GABAB receptor (Homo sapiens, UniProt Q9UBS5)
# [2] = in water and across a wide range of pH
# gb1a-gb^2 heterodimer and post-synaptic GABAB receptor, sequence (Q9UBS5 15-961 limits assumed): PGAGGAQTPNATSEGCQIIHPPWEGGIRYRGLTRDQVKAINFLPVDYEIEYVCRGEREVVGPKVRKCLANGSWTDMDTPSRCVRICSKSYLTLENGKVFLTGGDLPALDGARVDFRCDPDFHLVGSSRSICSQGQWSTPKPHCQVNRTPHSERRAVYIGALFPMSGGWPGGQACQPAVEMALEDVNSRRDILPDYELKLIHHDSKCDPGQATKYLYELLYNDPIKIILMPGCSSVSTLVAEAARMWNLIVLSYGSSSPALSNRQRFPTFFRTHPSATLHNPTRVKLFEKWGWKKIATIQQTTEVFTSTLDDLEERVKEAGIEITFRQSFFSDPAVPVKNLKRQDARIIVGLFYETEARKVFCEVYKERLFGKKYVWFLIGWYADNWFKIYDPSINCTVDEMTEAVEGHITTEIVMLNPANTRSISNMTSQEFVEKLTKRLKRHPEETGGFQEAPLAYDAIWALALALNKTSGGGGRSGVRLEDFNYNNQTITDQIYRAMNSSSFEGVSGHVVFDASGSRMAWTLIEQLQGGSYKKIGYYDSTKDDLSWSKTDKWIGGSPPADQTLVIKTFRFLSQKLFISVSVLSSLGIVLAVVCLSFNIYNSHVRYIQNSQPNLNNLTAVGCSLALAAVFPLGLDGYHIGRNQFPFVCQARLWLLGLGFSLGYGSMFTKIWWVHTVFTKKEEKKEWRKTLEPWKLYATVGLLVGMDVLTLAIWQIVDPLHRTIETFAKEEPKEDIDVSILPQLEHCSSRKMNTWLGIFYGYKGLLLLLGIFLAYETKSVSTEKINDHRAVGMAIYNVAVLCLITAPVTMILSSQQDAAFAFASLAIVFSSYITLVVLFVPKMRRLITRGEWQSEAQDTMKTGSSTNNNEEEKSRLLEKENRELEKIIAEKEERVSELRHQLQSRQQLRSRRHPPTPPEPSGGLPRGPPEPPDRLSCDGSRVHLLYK
# gb1a-gb^2 heterodimer and post-synaptic GABAB receptor, sequence (O75899 42-941 partner): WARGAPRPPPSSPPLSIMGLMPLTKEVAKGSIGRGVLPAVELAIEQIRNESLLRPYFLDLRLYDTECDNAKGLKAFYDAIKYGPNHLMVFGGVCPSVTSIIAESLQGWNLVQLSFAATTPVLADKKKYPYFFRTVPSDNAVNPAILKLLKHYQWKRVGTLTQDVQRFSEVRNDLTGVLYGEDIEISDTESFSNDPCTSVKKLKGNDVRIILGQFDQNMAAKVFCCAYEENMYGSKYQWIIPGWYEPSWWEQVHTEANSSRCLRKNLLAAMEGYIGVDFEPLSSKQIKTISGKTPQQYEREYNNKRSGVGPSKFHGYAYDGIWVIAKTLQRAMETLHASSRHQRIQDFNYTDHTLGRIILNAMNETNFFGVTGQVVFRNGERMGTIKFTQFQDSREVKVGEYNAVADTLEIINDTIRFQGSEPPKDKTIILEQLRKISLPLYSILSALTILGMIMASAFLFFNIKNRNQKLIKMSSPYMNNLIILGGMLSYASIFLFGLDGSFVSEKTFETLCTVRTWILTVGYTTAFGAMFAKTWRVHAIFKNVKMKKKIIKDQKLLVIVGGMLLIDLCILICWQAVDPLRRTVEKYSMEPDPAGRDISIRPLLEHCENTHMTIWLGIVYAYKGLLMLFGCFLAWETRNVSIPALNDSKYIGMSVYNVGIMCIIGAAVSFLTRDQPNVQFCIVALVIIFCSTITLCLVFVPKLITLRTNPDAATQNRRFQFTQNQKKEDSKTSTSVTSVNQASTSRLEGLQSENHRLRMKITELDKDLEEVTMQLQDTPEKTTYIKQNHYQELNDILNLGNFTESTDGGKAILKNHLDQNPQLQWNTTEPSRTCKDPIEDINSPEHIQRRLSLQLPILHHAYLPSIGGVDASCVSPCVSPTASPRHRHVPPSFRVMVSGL
smiles,measurement,setting,value
"NCC1(CC(=O)O)CCCCC1 [gabapentin, l-(amino methyl) cyclohexaneacetic acid]",receptor activity,[1],selective agonist
same,time of peak plasma gabapentin concentrations,"adults, post-dose",2 to 3 h
same,absolute bioavailability,"after administration of 300 mg, dose-dependent",approximately 60%
same,metabolism,in vivo,is not metabolized
same,plasma protein binding,in vivo,does not bind to plasma proteins
same,route of elimination,in vivo,eliminated via glomerular filtration
same,blood-brain barrier passage,unlike GABA,able to cross the blood-brain barrier
same,solubility,[2],freely soluble in water
